Where two headings read alike, the source gives them in different places.
Assay: Metabolite analysis in plasma, liver, and kidney (TLC)
Assay type: in vivo, Crl:CD1(ICR) mice
Details: Crl:CD1(ICR), mouse
Text: Precoated silica gel 60 F254 chromatoplate (20 × 20 cm, 0.25‐ or 0.5‐mm layer thickness, Merck KGaA) was used for two‐dimensional thin layer chromatography (2D‐TLC) analysis. The solvent systems were ethyl formate/formic acid (95/5, v/v) for the first dimension, and ethyl acetate/acetic acid (95/5, v/v) for the second dimension. The radioactivity on the TLC plates was detected by autoradiography using an imaging plate processed with a fluoro‐image analyzer (FLA‐9500, GE Healthcare). The identity of the metabolites was confirmed by co‐chromatography in comparison with authentic metabolite standards.
Three mice per sex at 8 weeks old were given a single oral dose of [^14C]epyrifenacil at 1 mg/kg with or without co‐administration of OATP inhibitors. […] At 2 h after administration of [^14C]epyifenacil, the animals were euthanized by whole blood collection from the abdominal aorta under anesthesia with isoflurane. The sampling time point was selected as the time around T max based on the result of the blood ^14C‐concentration study. Then, the liver and kidney were dissected out, and the amount of ^14C was measured. Aliquots of heparinized blood samples were separated into blood cells and plasma by centrifugation at 2000g for 10 min at 4°C. The total weight of the liver and kidney was determined for each animal. Two aliquots of plasma and tissue samples (approximately 0.05–0.1 g) were weighed in a glass vial, and the radioactivity was measured.
Approximately 0.3 g of liver, kidney, and plasma samples were pooled, respectively, for each dose and gender to obtain samples for analysis. Pooled liver, kidney, and plasma (ca. 1 g each) samples were homogenized with an approximately 3‐fold volume (v/w) of methanol using the mixer mill MM400 (5 min, 25 cycles/second, Retsch GmbH) and centrifuged (10 000g, 5 min, 4°C) to separate the supernatants from the residues. The extraction was repeated one additional time. The supernatants obtained were pooled and labeled liver, kidney, and plasma extracts. These samples were concentrated and then subjected to TLC analysis. For calculation of extraction efficacy, the post‐extraction solids (PESs) from the tissues and plasma extracts were sampled in low potassium glass vials. PESs were solubilized with 3 M potassium hydroxide solution (approximately 1 ml), then bleached with 30% hydrogen peroxide solution, and finally mixed with 10 ml of Hionic‐Fluor to measure the radioactivity.

[1] = kidney, oral, with rifampicin (OATP inhibitor) 200 mg/kg p.o., Male, 2 h after [^14C]Epyrifenacil 1 mg/kg p.o. + Rifampicin 200 mg/kg p.o., read-out: Metabolite concentration, Kidney
[2] = kidney, oral, Female, 2 h after [^14C]Epyrifenacil 1 mg/kg p.o., read-out: Metabolite concentration, Kidney
[3] = kidney, oral, Male, 2 h after [^14C]Epyrifenacil 1 mg/kg p.o., read-out: Metabolite concentration, Kidney
[4] = liver, oral, Female, 2 h after [^14C]Epyrifenacil 1 mg/kg p.o., read-out: Metabolite concentration, Liver
[5] = liver, oral, Male, 2 h after [^14C]Epyrifenacil 1 mg/kg p.o., read-out: Metabolite concentration, Liver
[6] = plasma, oral, Female, 2 h after [^14C]Epyrifenacil 1 mg/kg p.o., read-out: Metabolite concentration, Plasma
[7] = plasma, oral, Male, 2 h after [^14C]Epyrifenacil 1 mg/kg p.o., pooled samples, read-out: Metabolite concentration, Plasma

## CNC(=O)Nc1cc(Oc2cccnc2OCC(=O)O)c(Cl)cc1F [M2]
[1]
  concentration at 2 h: 1 ng/g
[2]
  concentration at 2 h: 2 ng/g
[3]
  concentration at 2 h: 4 ng/g
[4]
  concentration at 2 h: 11 ng/g
[5]
  concentration at 2 h: 24 ng/g
plasma, oral, with rifampicin (OATP inhibitor) 200 mg/kg p.o., Female, 2 h after [^14C]Epyrifenacil 1 mg/kg p.o. + Rifampicin 200 mg/kg p.o., read-out: Metabolite concentration, Plasma
  concentration at 2 h: 16 ng/g
plasma, oral, with rifampicin (OATP inhibitor) 200 mg/kg p.o., Male, 2 h after [^14C]Epyrifenacil 1 mg/kg p.o. + Rifampicin 200 mg/kg p.o., read-out: Metabolite concentration, Plasma
  concentration at 2 h: 35 ng/g
[6]
  concentration at 2 h: 55 ng/g
[7]
  concentration at 2 h: 20 ng/g

## CN1C(=O)N(c2cc(Oc3cccnc3OCC(=O)O)c(Cl)cc2F)C(=O)CC1(O)C(F)(F)F (centres unmarked) [M4]
female, in vivo, 1 mg/kg, Female, 2 h after [^14C]Epyrifenacil 1 mg/kg p.o., read-out: Metabolite concentration, Kidney
  concentration at 2 h: 23 ng/g
female, in vivo, 1 mg/kg, Female, 2 h after [^14C]Epyrifenacil 1 mg/kg p.o., read-out: Metabolite concentration, Liver
  concentration at 2 h: 858 ng/g
female, in vivo, Female, 2 h after [^14C]Epyrifenacil 1 mg/kg p.o. + Digoxin 100 mg/kg i.p., read-out: Metabolite concentration, Kidney
  concentration at 2 h: 30 ng/g
female, in vivo, Female, 2 h after [^14C]Epyrifenacil 1 mg/kg p.o. + Digoxin 100 mg/kg i.p., read-out: Metabolite concentration, Liver
  concentration at 2 h: 553 ng/g
female, in vivo, Female, 2 h after [^14C]Epyrifenacil 1 mg/kg p.o. + Digoxin 200 mg/kg p.o., read-out: Metabolite concentration, Kidney
  concentration at 2 h: 7 ng/g
female, in vivo, Female, 2 h after [^14C]Epyrifenacil 1 mg/kg p.o. + Digoxin 200 mg/kg p.o., read-out: Metabolite concentration, Liver
  concentration at 2 h: 291 ng/g
female, in vivo, Female, 2 h after [^14C]Epyrifenacil 1 mg/kg p.o. + Rifampicin 200 mg/kg p.o., read-out: Metabolite concentration, Kidney
  concentration at 2 h: 15 ng/g
female, in vivo, Female, 2 h after [^14C]Epyrifenacil 1 mg/kg p.o. + Rifampicin 200 mg/kg p.o., read-out: Metabolite concentration, Liver
  concentration at 2 h: 129 ng/g
female, in vivo, Female, 2 h after [^14C]Epyrifenacil 1 mg/kg p.o. + Rifampicin 200 mg/kg p.o., read-out: Metabolite concentration, Plasma
  concentration at 2 h: 22 ng/g
male, in vivo, 1 mg/kg, Male, 2 h after [^14C]Epyrifenacil 1 mg/kg p.o., pooled samples, read-out: Metabolite concentration, Plasma
  concentration at 2 h: 3 ng/g
male, in vivo, 1 mg/kg, Male, 2 h after [^14C]Epyrifenacil 1 mg/kg p.o., read-out: Metabolite concentration, Kidney
  concentration at 2 h: 9 ng/g
male, in vivo, 1 mg/kg, Male, 2 h after [^14C]Epyrifenacil 1 mg/kg p.o., read-out: Metabolite concentration, Liver
  concentration at 2 h: 1030 ng/g
male, in vivo, Male, 2 h after [^14C]Epyrifenacil 1 mg/kg p.o. + Digoxin 100 mg/kg i.p., read-out: Metabolite concentration, Kidney
  concentration at 2 h: 14 ng/g
male, in vivo, Male, 2 h after [^14C]Epyrifenacil 1 mg/kg p.o. + Digoxin 100 mg/kg i.p., read-out: Metabolite concentration, Liver
  concentration at 2 h: 651 ng/g
male, in vivo, Male, 2 h after [^14C]Epyrifenacil 1 mg/kg p.o. + Digoxin 200 mg/kg p.o., read-out: Metabolite concentration, Kidney
  concentration at 2 h: 5 ng/g
male, in vivo, Male, 2 h after [^14C]Epyrifenacil 1 mg/kg p.o. + Digoxin 200 mg/kg p.o., read-out: Metabolite concentration, Liver
  concentration at 2 h: 157 ng/g
male, in vivo, Male, 2 h after [^14C]Epyrifenacil 1 mg/kg p.o. + Rifampicin 200 mg/kg p.o., read-out: Metabolite concentration, Kidney
  concentration at 2 h: 22 ng/g
male, in vivo, Male, 2 h after [^14C]Epyrifenacil 1 mg/kg p.o. + Rifampicin 200 mg/kg p.o., read-out: Metabolite concentration, Liver
  concentration at 2 h: 172 ng/g
male, in vivo, Male, 2 h after [^14C]Epyrifenacil 1 mg/kg p.o. + Rifampicin 200 mg/kg p.o., read-out: Metabolite concentration, Plasma
  concentration at 2 h: 4 ng/g

## Cn1c(C(F)(F)F)cc(=O)n(-c2cc(Oc3ccc[nH]c3=O)c(Cl)cc2F)c1=O [M6]
[1]
  concentration at 2 h: 1 ng/g
[2]
  concentration at 2 h: 4 ng/g
[3]
  concentration at 2 h: 8 ng/g
[4]
  concentration at 2 h: 6 ng/g
[5]
  concentration at 2 h: 12 ng/g
[6]
  concentration at 2 h: 15 ng/g
[7]
  concentration at 2 h: 3 ng/g

From publication PMC8496750, “Identification of the organic anion transporting polypeptides responsible for the hepatic uptake of the major metabolite of epyrifenacil, S‐3100‐CA, in mice” (Pharmacology Research & Perspectives, 2021)
